Assay results as given in ChEMBL document CHEMBL1201862, “PubChem BioAssay data set” (2004).
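These data come from cells grown in 96-well plates and exposed to compound for 48 hours at five concentrations. Here, GI50 denotes the concentration required for 50% inhibition of growth.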 Activity calls are given as the source filed them. No stated cut-off is given here; in the data, active = GI50 up to about 1.1 µM and inactive = higher.

Tests used:
Assay in all cases: NCI-60 cell line screen, 48 h
786-0 = tested on: 786-0
A498 = tested on: A498
COLO 205 = tested on: COLO 205
EKVX = tested on: EKVX
HL-60 = tested on: HL-60
KM12 = tested on: KM12
Malme-3M = tested on: Malme-3M
NCI-H23 = tested on: NCI-H23
OVCAR-3 = tested on: OVCAR-3
OVCAR-4 = tested on: OVCAR-4
OVCAR-8 = tested on: OVCAR-8
SF-295 = tested on: SF-295
SK-MEL-2 = tested on: SK-MEL-2
SN12C = tested on: SN12C
SW-620 = tested on: SW-620
TK-10 = tested on: TK-10
UACC-257 = tested on: UACC-257
UO-31 = tested on: UO-31
SK-OV-3 = tested on: SK-OV-3
HOP-92 = tested on: HOP-92

Measured: GI50

Cc1nc(N)c(N2CCN(CN)CC2)c(O)n1
inactive: 786-0 > 100 µM | A498 > 100 µM | COLO 205 > 100 µM | EKVX > 100 µM | HL-60 > 100 µM | KM12 > 100 µM | Malme-3M > 100 µM | NCI-H23 > 100 µM | OVCAR-3 > 100 µM | OVCAR-4 > 100 µM | OVCAR-8 > 100 µM | SF-295 > 100 µM | SK-MEL-2 > 100 µM | SN12C > 100 µM | SW-620 > 100 µM | TK-10 > 100 µM | UACC-257 > 100 µM | UO-31 > 100 µM

O=C(O)c1ccc(Nc2nc3cc(C(F)(F)F)ccc3nc2C(=O)O)cc1
inactive: 786-0 > 100 µM | A498 > 100 µM | COLO 205 > 100 µM | EKVX > 100 µM | HL-60 > 100 µM | KM12 > 100 µM | Malme-3M > 100 µM | NCI-H23 > 100 µM | OVCAR-3 > 100 µM | OVCAR-4 > 100 µM | OVCAR-8 > 100 µM | SF-295 > 100 µM | SK-MEL-2 > 100 µM | SN12C > 100 µM | SW-620 > 100 µM | UO-31 > 100 µM

COP(=O)(/C=C/c1cc(C(=O)OCc2ccccc2)n(S(=O)(=O)c2ccccc2)c1)OC
inactive: 786-0 > 100 µM | A498 > 100 µM | COLO 205 > 100 µM | EKVX > 100 µM | HL-60 > 100 µM | KM12 > 100 µM | Malme-3M > 100 µM | NCI-H23 > 100 µM | OVCAR-3 > 100 µM | OVCAR-4 > 100 µM | OVCAR-8 > 100 µM | SF-295 > 100 µM | SK-MEL-2 > 100 µM | SK-OV-3 > 100 µM | SN12C > 100 µM | SW-620 > 100 µM | TK-10 > 100 µM | UACC-257 > 100 µM | UO-31 > 100 µM

CSc1nsc(-c2ccccc2)[s+]1.[O-][Cl+3]([O-])([O-])[O-]
inactive: 786-0 > 100 µM | A498 > 100 µM | COLO 205 > 100 µM | EKVX > 100 µM | HL-60 72.1 µM | KM12 > 100 µM | Malme-3M > 100 µM | OVCAR-3 > 100 µM | OVCAR-4 > 100 µM | OVCAR-8 > 100 µM | SK-MEL-2 > 100 µM | SK-OV-3 > 100 µM | SN12C > 100 µM | SW-620 > 100 µM | TK-10 > 100 µM | UACC-257 > 100 µM | UO-31 > 100 µM

COc1cc([C@@H]2c3cc(O)c(OC)cc3C=C(C(N)=O)[C@H]2C(N)=O)ccc1O
inactive: 786-0 > 100 µM | A498 > 100 µM | COLO 205 > 100 µM | EKVX > 100 µM | HL-60 > 100 µM | HOP-92 > 100 µM | KM12 > 100 µM | Malme-3M > 100 µM | NCI-H23 > 100 µM | OVCAR-3 > 100 µM | OVCAR-8 > 100 µM | SF-295 > 100 µM | SN12C > 100 µM | SW-620 > 100 µM | UACC-257 > 100 µM | UO-31 > 100 µM

COc1cccc2c1OC1c3ccccc3OCC1(O)C2 (stereo not given)
inactive: 786-0 > 100 µM | A498 > 100 µM | COLO 205 > 100 µM | EKVX > 100 µM | HOP-92 > 100 µM | KM12 > 100 µM | Malme-3M > 100 µM | NCI-H23 > 100 µM | OVCAR-3 > 100 µM | OVCAR-4 > 100 µM | OVCAR-8 > 100 µM | SF-295 > 100 µM | SK-MEL-2 > 100 µM | SK-OV-3 > 100 µM | SN12C > 100 µM | SW-620 > 100 µM | TK-10 > 100 µM | UACC-257 > 100 µM | UO-31 > 100 µM

COc1cccc(/C=C2\SC(=S)N(/C=C3\C(=O)Oc4ccccc4C3=O)C2=O)c1O
inactive: 786-0 67.8 µM | A498 11.9 µM | COLO 205 85.7 µM | EKVX > 100 µM | HL-60 41.2 µM | KM12 45.8 µM | Malme-3M > 100 µM | NCI-H23 45.2 µM | OVCAR-3 34.4 µM | OVCAR-4 82.4 µM | OVCAR-8 80 µM | SF-295 76.6 µM | SK-MEL-2 45.7 µM | SK-OV-3 49.2 µM | SN12C 56.4 µM | SW-620 44.1 µM | UACC-257 68.2 µM | UO-31 22.3 µM

O=C1N[C@H]2C(=O)c3c(Br)sc(Br)c3[C@H]2O1
inactive: 786-0 8.26 µM | A498 18.7 µM | COLO 205 3.52 µM | EKVX 5.69 µM | HOP-92 14.6 µM | KM12 19 µM | Malme-3M 4.75 µM | NCI-H23 6.44 µM | OVCAR-3 3.11 µM | OVCAR-4 15.3 µM | OVCAR-8 3.82 µM | SF-295 18.5 µM | SK-MEL-2 14.7 µM | SK-OV-3 18.4 µM | SN12C 4.76 µM | SW-620 2.17 µM | TK-10 22 µM | UACC-257 8.07 µM | UO-31 1.86 µM

CN(C)CCNC(=O)c1cccc2c(NC(CCC(N)=O)C(=O)O)c3ccccc3nc12 (stereo not given)
inactive: 786-0 9.84 µM | A498 16.2 µM | COLO 205 4.8 µM | EKVX 14.5 µM | HOP-92 14.5 µM | KM12 7.78 µM | Malme-3M 5.56 µM | NCI-H23 3.45 µM | OVCAR-3 12.6 µM | OVCAR-4 16.1 µM | OVCAR-8 9.18 µM | SF-295 5.64 µM | SK-MEL-2 11.9 µM | SK-OV-3 9.95 µM | SN12C 10.4 µM | SW-620 4.55 µM | TK-10 34.1 µM | UACC-257 8.2 µM | UO-31 1.55 µM

O=C(/C=C/c1cccs1)c1ccc(Cl)cc1
inactive: 786-0 55.7 µM | A498 99.3 µM | COLO 205 > 100 µM | EKVX > 100 µM | HL-60 28.6 µM | KM12 43.9 µM | Malme-3M > 100 µM | NCI-H23 88.5 µM | OVCAR-8 90.4 µM | SF-295 99.3 µM | SK-MEL-2 > 100 µM | SK-OV-3 > 100 µM | SN12C 51.5 µM | SW-620 28.8 µM | TK-10 > 100 µM | UACC-257 > 100 µM | UO-31 82.2 µM

COC(=O)c1cc(Cl)ccc1NC(=O)c1ccc([N+](=O)[O-])cc1
inactive: 786-0 14.6 µM | A498 17.5 µM | EKVX 31.8 µM | HL-60 27.4 µM | KM12 19.8 µM | Malme-3M 23 µM | NCI-H23 18.8 µM | OVCAR-3 15.6 µM | OVCAR-4 3.33 µM | OVCAR-8 15.9 µM | SF-295 2.42 µM | SK-MEL-2 49 µM | SK-OV-3 19.7 µM | SW-620 29.9 µM | TK-10 16.9 µM | UACC-257 39.2 µM | UO-31 17.2 µM
